From patent US20250179078A1, “INHIBITORS OF NLRP3” (PTC THERAPEUTICS, INC., priority 2022, published 2025)

Target: T1, NLRP3 (Homo sapiens, UniProt Q96P20)
T1 construct: host or cells: THP-1 cells differentiated with PMA
Assay: IL-1β Secretion Assay (NLRP3-dependent IL1β secretion in THP1 cells)
Format: cell-based
Settings: PMA-differentiated THP-1 cells; compounds incubated 20 h; 2.5 μM Nigericin 3 h; HTRF IL-1β readout; read-out: IC50 IL-1β Inhibition
Outline: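 IL-1β in conditioned media, measured by HTRF after 3 h 2.5 μM nigericin stimulation, gave % inhibition fitted logistically for IC50. Before that, PMA-differentiated (100 ng/mL, 24 h) THP-1 cells were preincubated 20 h with 7 compound concentrations (3-fold serial, DMSO 1:200).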

T1 sequence (Q96P20 whole entry): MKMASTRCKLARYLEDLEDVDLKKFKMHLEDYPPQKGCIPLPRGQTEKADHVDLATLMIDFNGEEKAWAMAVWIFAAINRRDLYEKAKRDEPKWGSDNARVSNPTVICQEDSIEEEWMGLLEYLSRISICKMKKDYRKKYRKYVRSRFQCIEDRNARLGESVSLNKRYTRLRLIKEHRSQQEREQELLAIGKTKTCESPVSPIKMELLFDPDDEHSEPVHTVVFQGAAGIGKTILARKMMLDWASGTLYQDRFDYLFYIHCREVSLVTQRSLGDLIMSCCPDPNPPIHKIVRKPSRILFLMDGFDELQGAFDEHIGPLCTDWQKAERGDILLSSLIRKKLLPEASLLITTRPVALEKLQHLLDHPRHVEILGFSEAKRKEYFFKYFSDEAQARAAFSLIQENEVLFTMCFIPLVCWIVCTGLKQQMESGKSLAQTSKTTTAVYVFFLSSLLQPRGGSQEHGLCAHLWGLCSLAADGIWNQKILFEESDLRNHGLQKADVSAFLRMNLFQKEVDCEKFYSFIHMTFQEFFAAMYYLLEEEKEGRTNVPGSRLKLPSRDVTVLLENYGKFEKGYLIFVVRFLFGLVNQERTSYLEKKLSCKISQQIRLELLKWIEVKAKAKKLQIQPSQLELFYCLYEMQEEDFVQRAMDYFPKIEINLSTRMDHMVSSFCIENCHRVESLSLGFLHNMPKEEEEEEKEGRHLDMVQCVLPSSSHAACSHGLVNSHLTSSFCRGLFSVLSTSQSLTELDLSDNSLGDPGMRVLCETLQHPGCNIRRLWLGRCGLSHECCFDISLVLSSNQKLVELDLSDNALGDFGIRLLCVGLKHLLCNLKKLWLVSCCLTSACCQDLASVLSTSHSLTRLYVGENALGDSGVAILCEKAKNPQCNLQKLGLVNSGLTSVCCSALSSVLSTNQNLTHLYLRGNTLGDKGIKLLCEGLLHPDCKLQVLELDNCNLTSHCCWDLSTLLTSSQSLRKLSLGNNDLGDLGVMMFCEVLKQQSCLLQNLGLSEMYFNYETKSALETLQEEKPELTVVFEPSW

`Cc1cc2c(-c3ccc(C(F)(F)F)cc3OC(F)F)nnc(NC(C)c3cccc(O)c3)n2n1` (centres unmarked) [Compound 383, 3-[1-({4-[2-(difluoromethoxy)-4-(trifluoromethyl)phenyl]-2-methylpyrazolo[1,5-d][1,2,4]triazin-7-yl}amino)ethyl]phenol] and `CC(Nc1nnc(-c2ccc(C(F)(F)F)cc2C(F)(F)F)c2ccnn12)c1cccc(O)c1` (centres unmarked) [Compound 395, 3-[1-({4-[2,4-bis(trifluoromethyl)phenyl]pyrazolo[1,5-d][1,2,4]triazin-7-yl}amino)ethyl]phenol] fall in the same range of IC50: 1 to 10 nM for the first, 1 to 10 nM for the second.

`COc1ccc(-c2nnc(N[C@@H]3CCOC[C@H]3O)n3nc(C)cc23)c(CC(F)(F)F)c1` [Compound 384, (3S,4R)-4-({4-[4-methoxy-2-(2,2,2-trifluoroethyl)phenyl]-2-methylpyrazolo[1,5-d][1,2,4]triazin-7-yl}amino)oxan-3-ol] and `COc1ccc(-c2nnc(N[C@@H]3CCCC[C@H]3O)n3nc(C)cc23)c(CC(F)(F)F)c1` [Compound 385, (1R,2R)-2-({4-[4-methoxy-2-(2,2,2-trifluoroethyl)phenyl]-2-methylpyrazolo[1,5-d][1,2,4]triazin-7-yl}amino)cyclohexan-1-ol] fall in the same range of IC50: 1 to 10 nM for the first, 1 to 10 nM for the second.

First: COc1ccc(-c2nnc(NC3CCNC3=O)n3nc(C)cc23)c(CC(F)(F)F)c1 (centres unmarked) [Compound 386, 3-({4-[4-methoxy-2-(2,2,2-trifluoroethyl)phenyl]-2-methylpyrazolo[1,5-d][1,2,4]triazin-7-yl}amino)pyrrolidin-2-one]
Second: COc1ccc(-c2nnc(N[C@H]3C[C@@](C)(O)C3)n3nc(C)cc23)c(CC(F)(F)F)c1 [Compound 387, (1s,3s)-3-({4-[4-methoxy-2-(2,2,2-trifluoroethyl)phenyl]-2-methylpyrazolo[1,5-d][1,2,4]triazin-7-yl}amino)-1-methylcyclobutan-1-ol]
The IC50 of the first is higher: 10 to 100 nM for the first, 1 to 10 nM for the second.

`Cc1cc2c(-c3ccc(C(F)(F)F)cc3CC(F)(F)F)nnc(N[C@H]3C[C@@](C)(O)C3)n2n1` [Compound 388, (1s,3s)-1-methyl-3-({2-methyl-4-[2-(2,2,2-trifluoroethyl)-4-(trifluoromethyl)phenyl]pyrazolo[1,5-d][1,2,4]triazin-7-yl}amino)cyclobutan-1-ol] and `Cc1ccc(-c2nnc(N[C@H]3C[C@@](C)(O)C3)n3nc(C)cc23)c(CC(F)(F)F)c1` [Compound 390, (1s,3s)-1-methyl-3-({2-methyl-4-[4-methyl-2-(2,2,2-trifluoroethyl)phenyl]pyrazolo[1,5-d][1,2,4]triazin-7-yl}amino)cyclobutan-1-ol] fall in the same range of IC50: 1 to 10 nM for the first, 1 to 10 nM for the second.

First: Cc1cc2c(-c3ccc(C(F)(F)F)cc3CC(F)(F)F)nnc(N[C@@H]3CCCC[C@H]3O)n2n1 [Compound 389, (1R,2R)-2-({2-methyl-4-[2-(2,2,2-trifluoroethyl)-4-(trifluoromethyl)phenyl]pyrazolo[1,5-d][1,2,4]triazin-7-yl}amino)cyclohexan-1-ol]
Second: O[C@H]1CCCC[C@H]1Nc1nnc(-c2ccc(C(F)(F)F)cc2CC(F)(F)F)c2cncn12 [Compound 401, (1S,2R)-2-({1-[2-(2,2,2-trifluoroethyl)-4-(trifluoromethyl)phenyl]imidazo[1,5-d][1,2,4]triazin-4-yl}amino)cyclohexan-1-ol]
The IC50 of the first is lower: 1 to 10 nM for the first, 10 to 100 nM for the second.

`COc1ccc(-c2nnc(N[C@H]3C[C@@](C)(O)C3)n3nc(C)cc23)c(OC(F)(F)F)c1` [Compound 391, (1s,3s)-3-({4-[4-methoxy-2-(trifluoromethoxy)phenyl]-2-methylpyrazolo[1,5-d][1,2,4]triazin-7-yl}amino)-1-methylcyclobutan-1-ol] and `COc1ccc(-c2nnc(N[C@@H]3CCCC[C@H]3O)n3nc(C)cc23)c(OC(F)(F)F)c1` [Compound 392, (1R,2R)-2-({4-[4-methoxy-2-(trifluoromethoxy)phenyl]-2-methylpyrazolo[1,5-d][1,2,4]triazin-7-yl}amino)cyclohexan-1-ol] fall in the same range of IC50: 10 to 100 nM for the first, 10 to 100 nM for the second.

`O=C1NCCC1Nc1nnc(-c2ccc(C(F)(F)F)cc2OC(F)(F)F)c2ccnn12` (centres unmarked) [Compound 393, 3-({4-[2-(trifluoromethoxy)-4-(trifluoromethyl)phenyl]pyrazolo[1,5-d][1,2,4]triazin-7-yl}amino)pyrrolidin-2-one] and `O=C1NCCC1Nc1nnc(-c2ccc(C(F)(F)F)cc2C(F)(F)F)c2ccnn12` (centres unmarked) [Compound 396, 3-({4-[2,4-bis(trifluoromethyl)phenyl]pyrazolo[1,5-d][1,2,4]triazin-7-yl}amino)pyrrolidin-2-one] fall in the same range of IC50: 10 to 100 nM for the first, 10 to 100 nM for the second.

`O[C@@H]1CCCC[C@H]1Nc1nnc(-c2ccc(C(F)(F)F)cc2C(F)(F)F)c2ccnn12` [Compound 394, (1R,2R)-2-({4-[2,4-bis(trifluoromethyl)phenyl]pyrazolo[1,5-d][1,2,4]triazin-7-yl}amino)cyclohexan-1-ol] and `O[C@@H]1CCCC[C@H]1Nc1nnc(-c2ccc(C(F)(F)F)cc2OC(F)(F)F)c2ccnn12` [Compound 398, (1R,2R)-2-({4-[2-(trifluoromethoxy)-4-(trifluoromethyl)phenyl]pyrazolo[1,5-d][1,2,4]triazin-7-yl}amino)cyclohexan-1-ol] fall in the same range of IC50: 1 to 10 nM for the first, 1 to 10 nM for the second.

`C[C@]1(O)C[C@@H](Nc2nnc(-c3ccc(C(F)(F)F)cc3OC(F)(F)F)c3ccnn23)C1` [Compound 397, (1s,3s)-1-methyl-3-({4-[2-(trifluoromethoxy)-4-(trifluoromethyl)phenyl]pyrazolo[1,5-d][1,2,4]triazin-7-yl}amino)cyclobutan-1-ol] and `C[C@]1(O)C[C@@H](Nc2nnc(-c3ccc(C(F)(F)F)cc3C3CC3)c3cncn23)C1` [Compound 399, (1s,3s)-3-({1-[2-cyclopropyl-4-(trifluoromethyl)phenyl]imidazo[1,5-d][1,2,4]triazin-4-yl}amino)-1-methylcyclobutan-1-ol] fall in the same range of IC50: 1 to 10 nM for the first, 1 to 10 nM for the second.

`O[C@H]1CCOC[C@@H]1Nc1nnc(-c2ccc(C(F)(F)F)cc2CC(F)(F)F)c2cncn12` [Compound 400, (3S,4S)-3-({1-[2-(2,2,2-trifluoroethyl)-4-(trifluoromethyl)phenyl]imidazo[1,5-d][1,2,4]triazin-4-yl}amino)oxan-4-ol] and `Cc1ccc(-c2nnc(N[C@@H]3CCOC[C@H]3O)n3cncc23)c(CC(F)(F)F)c1` [Compound 402, (3S,4R)-4-({1-[4-methyl-2-(2,2,2-trifluoroethyl)phenyl]imidazo[1,5-d][1,2,4]triazin-4-yl}amino)oxan-3-ol] fall in the same range of IC50: 10 to 100 nM for the first, 10 to 100 nM for the second.
